Reference: patent US6442423B1, “Device for iontophoretic administration of drugs” (Hadasit Medical Research Services & Development Limited, priority 1998, dated 2002)
Where “and” joins values, the source holds several entries; their conditions need not be identical. Equal values may be shown once.

Columns and labels:
[1] = Release of gentamicin into the rabbit eye using hydrogel-probe iontophoresis (Example 5)
Protocol: Thirty six healthy rabbits (age 2-3 months, weight 2000 grams) were used. The study conformed with the ARVO Resolution of the Use of Animals in Research. The animals were anesthetized with intramuscular injections of ketamin HCl […] (Park Davis, Morris Plains, N.J.) and xylazine […] (Mobay, Shawnee, Kans.). Iontophoresis was carried out as follows: the distal end of the hydrogel-probe placed in a device as shown in FIG. 2 (diameter of 3 mm and 2 mm thick) was gently applied to the cornea of the rabbit while the anode of the iontophoretic system is inserted into the other end of the device and the cathode is attached to the ear of the animal.
A single concentration of 10 mg/ml gentamicin in the hydrogel-probe (dd) was studied, using two time periods of iontophoresis: long periods (60 seconds) and short periods (10 seconds). Six groups of rabbits, 6 animals per group, were treated with one of the treatments described in the following Table 1.
In group 3, one drop of topical gentamicin (14 mg/ml) was instilled into the eye every 5 minutes for 1 hour. In groups 4 and 5, mock iontophoresis was performed by placing a device containing 10 mg/ml of gentamicin on the cornea for 60 and 10 seconds without switching on the electric current. In group 6 iontophoresis was applied for 2 minutes with the dd containing NaCl 0.9% (instead of gentamicin).
Ten minutes after completion of the iontophoresis, or the control drug delivery technique in each animal, the surface of the eye was washed with 5 ml of NaCl 0.9%. The animals were sacrificed after 15 minutes by injecting an overdose of sodium pentobarbital. The entire cornea was excised with corneal scissors and rinsed again with 5 ml of NaCl 0.9%. The cornea was weighed, minced with a blade and placed into microcentrifuge tubes. To each tube, 0.5 ml 0.01 M phosphate buffered saline (pH 7.2) was added. The tubes were incubated for 18 hours in a water bath heated to 37° C., shaking at 100 oscillations/min. Thereafter the tubes were centrifuged for 10 min. at 2000 rpm. From each tube 125 microliter of the supernatant were assayed for gentamicin concentration using Abbot TDx. The concentration of gentamicin in the cornea was calculated as described before^(5). Gentamicin concentrations are expressed in micrograms per gram of tissue or per milliliter of buffer. 3 way ANOVA test was used for statistical evaluation.

[2] = Effect of current applied and duration of iontophoresis on drug cornea concentration (Experiment 6); format: in vivo, Albino rabbits; set-up: Gentimicin concentration in the cornea, Average: unit not given here
Description: The purpose of this experiment was to determine the effect of the current applied and duration on the drug cornea concentration.

[3] = monkey eye, cited from earlier work
[4] = iontophoresis, rabbit eyes; cited from earlier work
[5] = INT via the cornea, aphakic rabbit eye; cited from earlier work
[6] = INT, drug incorporated in soft agar gel; cited from earlier work
[7] = INT; cited from earlier work
[8] = system: experimentally induced keratitus; conditions: experimentally induced keratitus in the rabbit eye; cited from earlier work
[9] = Group 2: hydrogel probe 10 mg/ml gentamicin, 0.5 mA, 10 sec iontophoresis
[10] = Group 4: hydrogel probe 10 mg/ml gentamicin, 0.0 mA, 60 sec (mock iontophoresis)

gentamicin
Gentamicin concentration in cornea, Average ([1]; Group 1: hydrogel probe 10 mg/ml gentamicin, 0.5 mA, 60 sec iontophoresis): 33.1 ± 9.3 µg/g | Gentamicin concentration in cornea, Average [1, 9]: 6.5 ± 0.8 µg/g | Gentamicin concentration in cornea, single eyes (Eye No. 1-6) [1, 9]: 6.27 µg/g and 6.53 µg/g and 4.92 µg/g and 6.70 µg/g and 7.05 µg/g and 7.52 µg/g | Gentamicin concentration in cornea, Average ([1]; Group 3: eye drops, one drop every 5 minutes for 1 hour, no current): 2.1 ± 1.0 µg/g | Gentamicin concentration in cornea, Average [1, 10]: 2.6 ± 0.3 µg/g | Gentamicin concentration in cornea, single eyes (Eye No. 1-6) [1, 10]: 2.01 µg/g and 2.55 µg/g and 2.78 µg/g and 2.89 µg/g and 2.70 µg/g and 2.96 µg/g | Gentamicin concentration in cornea, Average ([1]; Group 5: hydrogel probe 10 mg/ml gentamicin, 0.0 mA, 10 sec (mock iontophoresis)): 1.1 ± 0.4 µg/g | Gentimicin concentration in the cornea, Average ([2]; Group 1: hydrogel probe 10 mg/ml, 0.0 mA, 60 sec): 2.71 ± 2.0 | Gentimicin concentration in the cornea, Average ([2]; Group 2: hydrogel probe 10 mg/ml, 0.1 mA, 60 sec): 4.5 ± 3.5 | Gentimicin concentration in the cornea, Average ([2]; Group 3: hydrogel probe 10 mg/ml, 0.3 mA, 60 sec): 42.2 ± 27.1 | Gentimicin concentration in the cornea, Average ([2]; Group 4: hydrogel probe 10 mg/ml, 0.6 mA, 60 sec): 88.6 ± 38.6 | Gentimicin concentration in the cornea, Average ([2]; Group 5: hydrogel probe 10 mg/ml, 0.0 mA, 10 sec): 0.0 | Gentimicin concentration in the cornea, Average ([2]; Group 6: hydrogel probe 10 mg/ml, 0.1 mA, 10 sec): 4.0 ± 2.4 | Gentimicin concentration in the cornea, Average ([2]; Group 7: hydrogel probe 10 mg/ml, 0.3 mA, 10 sec): 10.2 ± 4.1 | Gentimicin concentration in the cornea, Average ([2]; Group 8: hydrogel probe 10 mg/ml, 0.6 mA, 10 sec): 22.0 ± 7.8 | Gentimicin concentration in the cornea, Average ([2]; Group 9: subconj. inj., 0.3% w/v, no current): 30 ± 18.6 | gentamicin concentrations in the intraocular fluid ([2]; Groups 3 and 4 (0.3 and 0.6 mA, 60 sec)): High gentamicin concentrations | increase in drug concentration as compared with SC injections ([2]; current of 0.6 mAmp): 3 times | increase in drug concentration over a non-current application (diffusion only) ([2]; current of 0.6 mAmp): about 30 times | concentrations of gentamicin in the vitreous ([3]; transscleral INT using solutions, for several hours): bactericidal concentrations | damage to the retina, repeated Electro Retino Graphia (ERG) tests ([3]; transscleral INT): did not show damage to the retina | concentrations in the vitreous [4]: high concentrations | levels of gentamicin in the vitreous [5]: high levels | concentrations transferred into the rabbit cornea [6]: marked concentrations

Cc1nnc(SCC2=C(C(=O)O)N3C(=O)[C@@H](NC(=O)Cn4cnnn4)[C@H]3SC2)s1 [cefazoline]
concentrations in the vitreous [4]: high concentrations

CC(=O)N1CCN(c2ccc(OCC3COC(Cn4ccnc4)(c4ccc(Cl)cc4Cl)O3)cc2)CC1 (stereo not shown) [ketaconazole]
penetration into the animals' anterior chamber [7]: increased the penetration

CC1(C)S[C@@H]2[C@H](NC(=O)[C@H](C(=O)O)c3ccsc3)C(=O)N2[C@H]1C(=O)O [ticarcillin]
concentrations in the vitreous [4]: high concentrations

NC[C@H]1O[C@H](O[C@H]2[C@H](O)[C@@H](O[C@H]3O[C@H](CO)[C@@H](O)[C@H](N)[C@H]3O)[C@H](N)C[C@@H]2N)[C@H](N)C[C@@H]1O [tobramycin]
efficacy of INT versus topical administration [8]: more effective than topical administration
